Literature values as cited in patent US20230405025A1, “CANNABINOID-CONTAINING COMPOSITIONS AND USE FOR TREATING AND PREVENTING DISEASES” (priority 2020, published 2023).

Tested on: presbyopic patient

Question: Which Tolerability (concentrations above 0.5%, side effects red eyes, ocular pain, brow ache, headache) does the source give for `CC[C@@H]1C(=O)OC[C@@H]1Cc1cncn1C` [Pilocarpine, pilocarpine] here?
Answer: not tolerated

Question: And the Distance vision (concentrations effective enough to improve reading ability, eye rendered myopic (Gilmartin et al., 1995))?
Answer: significant decrease in the eye's distance vision

Question: What about the “Effect on accommodation of the eye” value (topical concentrations below 0.5%) of the same molecule?
Answer: minimal effect in the accommodation of the eye
